{
  "source": "patent US20100260785A1",
  "about": "“SARP-1 Fusion Proteins and Uses Thereof” (priority 2007, published 2010)",
  "key": {"[1]": {"test_system": "murine Wnt1 and human Wnt2", "test": "Wnt antagonistic activity, LEF-luciferase reporter assay with mixed Inducer and Reporter 293T cells", "format": "cell-based", "description": "293T cells expressing murine Wnt1 and human Wnt2 (Inducer Cells) and 293T cells expressing Luciferase under the control of LEF-site-linked promoter (Reporter Cells) were mixed at an equal ratio and seeded in 100 μl medium per well in a 96-well microtiter plate. The Inducer Cells by overexpressing Wnt1 and Wnt2 at its surface were able to induce an activation of the Wnt signaling pathway triggered by the interaction of the Wnt proteins with its receptor at the cell membrane of the Reporter Cells. The Reporter Cells in response to Wnt pathway activation expressed luciferase by the activation of Wnt responsive genes such as LEF.\nThe mixture was composed of about 10,000 Inducer Cells and 10,000 Reporter Cells per well. SARP-1(Fz)delta7-Fc was added to the culture medium at different concentrations (from 300 to 5 μg/ml). After 48 hours of incubation, the medium was discarded, and 40 μl lysis buffer were added to the cells. After 15 minutes of lysis on an orbital shaker at 4° C., the samples were submitted to two cycles of freezing and thawing followed by rigid shaking using a vortex (for 2 minutes) and sedimentation by centrifugation at 2000 rpm in V-shape microtiter plates.\nLuciferase activities were normalized by total protein content in the lysate. Protein quantification was performed on 5 μl cell lysate using the BCA kit (Pierce) as known in the art. To measure the luciferase activity, 10 μl of cell lysate each was transferred into a 96-well microtiter plate. 15 μl of luciferin reagent was added to the sample and the quantification of the luminescence was counted during 10 seconds.\nThe results were expressed in percentage of Wnt activation. Thus, the maximal luciferase activity obtained with the mixture of Inducer and Reporter Cells corresponded to 100%."}, "[2]": {"test_system": "human hepatic stellate cells", "test": "Cell proliferation assay (cell number/well) of PDGF-BB-stimulated primary human hepatic stellate cells", "format": "cell-based", "description": "(§1) Human hepatic stellate cells (HSCs) were isolated from wedge sections of normal human liver unsuitable for transplantation. Liver tissue was digested with collagenase/pronase. HSC were separated from other liver nonparenchymal cells by ultracentrifugation over gradients of Stractan (Cellsep isotonic solution; Larex Inc., St. Paul, Minn.). HSC were cultured on plastic culture dishes in Iscove's modified Dulbecco's medium supplemented with 0.6 U/mL of insulin, 2.0 mmol/L of glutamine, 0.1 mmol/L of nonessential amino acids, 1.0 mmol/L of sodium pyruvate, antibiotic-antimycotic solution (all provided by Gibco Laboratories, Grand Island, N.Y.), and 20% fetal bovine serum (Imperial Laboratories, Andover, UK). All experiments were performed in triplicate and results are expressed as MEAN+SD. Statistical significance was evaluated by Student t test.\n(§2) For this group of experiments the stimulus of choice was human recombinant PDGF-BB at the standard dose of 10 ng/ml. Canrenone (10 μM), whose inhibitory effect has been previously shown in the same cell preparations (Caligiuri et al., 2003), was used as a positive control of inhibition.\nHSC were plated in 12 well dishes at 30% confluence in Iscove's modified Dulbecco's medium supplemented with 0.6 U/mL insulin, 2.0 mmol/L of glutamine, 0.1 mmol/L nonessential amino acids, 1.0 mmol/L of sodium pyruvate, antibiotic-antimycotic solution (all from Gibco Laboratories, Grand Island, N.Y.), and 20% fetal bovine serum (Imperial Laboratories, Andover, UK). After 24 hours the HSC were incubated with serum-free medium containing PDGF-BB to induce activation at a concentration of 10 ng/ml with or without SARP-1(Fz)delta7-Fc at a concentration of 10, 1 and 0.1 μg/ml. HSC were harvested and cell number/well were determined after 2, 4, and 6 days of culture. At each time point fresh medium and experimental conditions were added at the remaining wells."}, "[3]": {"test_system": "human hepatic stellate cells", "test": "Incorporation of 3H-thymidine into DNA of PDGF-BB-stimulated primary human hepatic stellate cells", "format": "cell-based", "settings": "PDGF-BB 10 ng/ml; 10, 1 and 0.1 μg/ml", "description": "as §1, §2\nHSC were plated in 24 well plastic dishes and grown to confluence in complete cell culture medium containing 20% of fetal bovine serum (FBS). HSC were then deprived of serum for 48 hours and stimulated with PDGF-BB for additional 24 hours. […]"}, "[4]": {"test_system": "B16F1 (mouse melanoma) cell line", "test": "MTT cell proliferation assay, B16F1", "format": "cell-based", "description": "(§3) The cell line B16F1 (mouse melanoma) were cultivated in DMEM+10% serum and seeded at 5000 cells/well in a total volume of 50 μl. The SW480 and SW620 (human colon carcinoma) cell lines were cultivated in L15 medium+10% fetal bovine serum and seeded at 20,000 cells per well in a total volume of 50 μl. SARP-1(Fz)delta7-Fc was added immediately at a concentration of 1, 3 or 6 μM.\n(§4) Cell proliferation assay was evaluated by reduction of 3-(4,5-dimethylthiazol-2-yl)-2,5-diphenyltetrazolium bromide (MTT) after 24, 48, 72 and 96 hours of culture. For the test of cell proliferation, 5 μl and 10 μl of MTT solution were added to the cultures of B16F1, SW480 and SW620 cells, respectively. After the incubation period, cells were lysed in 200 μl DMSO, and optic density was determined at 570 and 630 nm. The positive control for inhibition of cell proliferation was DKK1-Fc used at a concentration of 1 μM during the experiment."}, "[5]": {"test_system": "SW480 (human colon carcinoma) cell line", "test": "MTT cell proliferation assay, SW480", "format": "cell-based", "settings": "1, 3 or 6 μM; MTT after 24, 48, 72 and 96 hours", "description": "as §3, §4"}, "[6]": {"test_system": "SW620 (human colon carcinoma) cell line", "test": "MTT cell proliferation assay, SW620", "format": "cell-based", "settings": "1, 3 or 6 μM; MTT after 24, 48, 72 and 96 hours", "description": "as §3, §4"}, "[7]": {"test_system": "unilateral ureter ligation-induced renal fibrosis", "test": "Unilateral ureter obstruction (UUO) murine model of renal fibrosis", "format": "in vivo, C57BL/6 mice", "settings": "subcutaneous, 1.5 mg/ml, once a day, 21 days of treatment; p<0.05", "description": "The in vivo activity of SARP-1(Fz)[…]-Fc was tested in an experimental model of obstructive nephropathy, which is unilateral ureter ligation-induced renal fibrosis (Vielhauer et al., 2001). Female inbred C57BL/6 mice weighing 20 to 26 g were kept in macrolone type III cages under a 12 h light/dark cycle. Water and standard chow were available ad libitum. Under general ether anesthesia, a low midline abdominal incision was performed and the ligation of the left distal ureter was made with a 2/0 Mersilene suture, resulting in a unilateral ureter obstruction (UUO). Unobstructed contralateral kidneys served as controls. […] The first dose was administered immediately after UUO once a day for 21 days Mice were killed at 7 and 21 days after UUO by cervical dislocation under general anesthesia with inhaled ether. From each mouse cranial kidney halves were used for histological assessment. Ligated and contralateral kidney tissue was fixed for 24 hours at room temperature in 4% neutral buffered formalin and then embedded in paraffin. For quantitative analysis, 4 μm horizontal sections were cut. Every fifth of fifteen subsequent sections, chosen by systematic uniformly random sampling, was used for analysis. […]"}, "[8]": {"test_system": "lung fibroblasts of patients with interstitial pulmonary fibrosis (IPF)", "test": "BrdU incorporation (cell proliferation ELISA) in primary lung fibroblasts from IPF patients", "format": "cell-based, human", "settings": "for PDGF-increased BrdU incorporation: PDGF 10 ng/ml", "description": "To evaluate the effect of SARP-1(Fz)delta7-Fc, lung fibroblasts were obtained from lung explants of patients with interstitial pulmonary fibrosis (IPF) (N=3) and controls (N=3). Fibroblasts were cultured in 96 well cell culture plates in DMEM medium with high glucose (25 mM) and 10% Fetal Clone II (Hyclone) until they reached approximately 50% confluence. Fetal Clone II is an alternative to fetal bovine serum (FBS). Then the cells were cultured for 48 hours with Fetal Clone II at a concentration of 1%. […] Bromodeoxyuridine (5-bromo-2-deoxyuridine, BrdU) was added 24 hours later at a final concentration of 100 μM. After 24 hours of incubation, cells were fixed and lysed. Cell proliferation was evaluated with the cell proliferation ELISA BrdU colorimetric assay (Roche Diagnostics, Meylan, France) ELISA. The experiments were performed in the basal condition (without PDGF) and in the presence of PDGF (10 ng/ml), All experimental conditions were tested in triplicates and the mean value was calculated. For each experimental condition, the incorporation of BrdU was expressed as a percentage of the incorporation observed in the control condition in the same culture."}},
  "note": "Entries after “also recorded” stand apart in the source; their conditions may differ.",
  "data": [
    {"substance": "SARP-1(Fz)delta7-Fc: Fusion of mature SARP-1 without Netrin domain, lacking first seven N-terminal amino acids, with human IgG1 Fc region", "values": [
      {"measurement": "IC50", "setting": "[1]; 48 hours incubation, 300 to 5 μg/ml, read-out: IC50, reduction of luciferase activity", "result": 750, "unit": "nM"},
      {"measurement": "Emax reached, inhibition of Wnt 1 and Wnt 2 activation", "setting": "[1]; FIG. 3 legend", "result": 80, "unit": "%"},
      {"measurement": "EC50", "setting": "[1]; FIG. 3 legend, read-out: EC50, inhibition of Wnt 1 and Wnt 2 activation in a reporter cellular assay", "result": 750, "unit": "nM"},
      {"measurement": "maximum inhibition of luciferase activity", "setting": "[1]; at concentration from 150 to 300 μg/ml", "result": 80, "unit": "%"},
      {"measurement": "inhibitory effect on PDGF-induced hepatic stellate cells", "setting": "[2]; 10.0 μg/ml after 2, 4 and 6 days of culture", "result": "more prominent"},
      {"measurement": "PDGF-induced cell growth of hepatic stellate cells", "setting": "[2]; 10.0 μg/ml for 2, 4 or 6, PDGF-BB 10 ng/ml", "result": "significantly decreased"},
      {"measurement": "inhibitory effect on PDGF-induced hepatic stellate cells", "setting": "[2]; dose of 1 μg/ml after 2 days of culture", "result": "statistically significant"},
      {"measurement": "PDGF-induced DNA synthesis in primary human hepatic stellate cells cultures", "setting": "[3]", "result": "reduced significantly"},
      {"measurement": "level of inhibition of B16F1 proliferation compared with positive control DKK1-Fc (1 μM)", "setting": "[4]; 6 μM", "result": "comparable to the one obtained by using the positive control"},
      {"measurement": "inhibition of proliferation of B16F1 melanoma cell line", "setting": "[4]; 1 to 6 μM, MTT after 24, 48, 72 and 96 hours", "result": "significant inhibition; also recorded: inhibited cell proliferation"},
      {"measurement": "inhibition of cell proliferation of SW480", "setting": "[5]", "result": "able to inhibit the cell proliferation; also recorded: inhibited cell proliferation"},
      {"measurement": "inhibition of cell proliferation of SW620", "setting": "[6]", "result": "able to inhibit the cell proliferation; also recorded: inhibited cell proliferation"},
      {"measurement": "alfa smooth muscle actin (α-SMA) accumulation, myofibroblast marker, histological analysis", "setting": "[7]", "result": "reduction; also recorded: decreased"},
      {"measurement": "renal fibrosis by morphometric analysis of the changes in the tubular interstitium", "setting": "[7]", "result": "reduction of renal fibrosis"},
      {"measurement": "PDGF-increased BrdU incorporation", "setting": "[8]; 1 μg/ml", "result": "no effect"},
      {"measurement": "PDGF-increased BrdU incorporation", "setting": "[8]; 10 μg/ml", "result": "no effect"},
      {"measurement": "PDGF-increased BrdU incorporation", "setting": "[8]; 100 μg/ml", "result": "profoundly inhibited"},
      {"measurement": "PDGF-increased BrdU incorporation", "setting": "[8]; concentration not given", "result": "reduced BrdU incorporation"},
      {"measurement": "BrdU incorporation, basal condition", "setting": "[8]; without PDGF, in b213 at the highest dose tested", "result": "reduced BrdU incorporation"}
    ]}
  ]
}
